Earlier results, collected in patent US20220387454A1, “NUTRITIONAL COMPOSITION FOR VISUAL FUNCTION” (OMNIACTIVE HEALTH TECHNOLOGIES LIMITED, priority 2019, published 2022).

Tested on: patients with dry eye syndrome (DES) refractory to conventional treatment with vitamin D deficiency
Details: intramuscular 200,000 IU, p<0.05

## C=C1CC[C@H](O)C/C1=C/C=C1\CCC[C@]2(C)[C@@H]([C@H](C)CCCC(C)C)CC[C@@H]12 [cholecalciferol]
2, 6, and 10 weeks
  Eyelid margin hyperemia: showed improvement
  Severity of symptoms: showed improvement
2 and 6 weeks vs pre-treatment
  Tear break-up time (TBUT): showed an improvement
  Tear secretion test: showed an improvement
2 weeks vs pre-treatment
  Fluorescein staining score (FSS): decreased
  Ocular surface disease index (OSDI): decreased
  Visual analogue pain score (VAS): decreased
